Reference: BindingDB's records for doi:10.1016/j.bmcl.2004.04.096 (Cv Therapeutics, 2004)
Each block holds one compound with its values, some of them ahead of it.

Tests used:
[1] = biological target: T1, Adenosine receptor A1 (Cavia porcellus, UniProt P47745); experiment: Binding affinity against adenosine A1 receptor using [3H]CPX in guinea pig DDT membrane
T1 sequence (P47745 whole entry): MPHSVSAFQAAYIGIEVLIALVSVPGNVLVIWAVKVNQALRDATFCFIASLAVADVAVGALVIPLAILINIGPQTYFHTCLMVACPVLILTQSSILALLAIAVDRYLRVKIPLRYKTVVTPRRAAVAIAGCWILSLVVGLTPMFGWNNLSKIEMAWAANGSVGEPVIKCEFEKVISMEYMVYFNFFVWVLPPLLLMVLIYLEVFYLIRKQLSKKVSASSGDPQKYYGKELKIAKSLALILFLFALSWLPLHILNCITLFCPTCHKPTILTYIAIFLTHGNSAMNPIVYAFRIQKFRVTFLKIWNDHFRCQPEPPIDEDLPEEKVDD

[2] = biological target: T1, Adenosine receptor A1; experiment: Binding affinity against adenosine A1 receptor using [3H]CPX in guinea pig DDT membrane; 5497+/-180
[3] = biological target: T1, Adenosine receptor A1; experiment: Binding affinity against adenosine A1 receptor using [3H]CPX in guinea pig DDT membrane; 503+/-262
[4] = biological target: T1, Adenosine receptor A1; experiment: Binding affinity against adenosine A1 receptor using [3H]CPX in guinea pig DDT membrane; 1773+/-209
[5] = biological target: T1, Adenosine receptor A1; experiment: Binding affinity against adenosine A1 receptor using [3H]CPX in guinea pig DDT membrane; 1143+/-426
[6] = biological target: T1, Adenosine receptor A1; experiment: Binding affinity against adenosine A1 receptor using [3H]CPX in guinea pig DDT membrane; 1571+/-245
[7] = biological target: T1, Adenosine receptor A1; experiment: Binding affinity against adenosine A1 receptor using [3H]CPX in guinea pig DDT membrane; 1666+/-556
[8] = biological target: T1, Adenosine receptor A1; experiment: Binding affinity against adenosine A1 receptor using [3H]CPX in guinea pig DDT membrane; 287+/-125
[9] = biological target: T1, Adenosine receptor A1; experiment: Binding affinity against adenosine A1 receptor using [3H]CPX in guinea pig DDT membrane; 166+/-75
[10] = biological target: T1, Adenosine receptor A1; experiment: Binding affinity against adenosine A1 receptor using [3H]CPX in guinea pig DDT membrane; 400+/-38
[11] = biological target: T1, Adenosine receptor A1; experiment: Binding affinity against adenosine A1 receptor using [3H]CPX in guinea pig DDT membrane; 1945+/-1316
[12] = biological target: T1, Adenosine receptor A1; experiment: Binding affinity against adenosine A1 receptor using [3H]CPX in guinea pig DDT membrane; 338+/-98
[13] = biological target: T1, Adenosine receptor A1; experiment: Binding affinity against adenosine A1 receptor using [3H]CPX in guinea pig DDT membrane; 343+/-137
[14] = biological target: T1, Adenosine receptor A1; experiment: Binding affinity against adenosine A1 receptor using [3H]CPX in guinea pig DDT membrane; 354+/-113
[15] = biological target: T1, Adenosine receptor A1; experiment: Binding affinity against adenosine A1 receptor using [3H]CPX in guinea pig DDT membrane; 913+/-517
[16] = biological target: T1, Adenosine receptor A1; experiment: Binding affinity against adenosine A1 receptor using [3H]-CPX in guinea pig DDT membrane; 4191+/-922
[17] = biological target: T1, Adenosine receptor A1; experiment: Binding affinity against adenosine A1 receptor using [3H]CPX in guinea pig DDT membrane; 5855+/-1208
[18] = biological target: T1, Adenosine receptor A1; experiment: Binding affinity against adenosine A1 receptor using [3H]CPX in guinea pig DDT membrane; 6250+/-1767
[19] = biological target: T1, Adenosine receptor A1; experiment: Binding affinity against adenosine A1 receptor using [3H]CPX in guinea pig DDT membrane; 117+/-46
[20] = biological target: T1, Adenosine receptor A1; experiment: Binding affinity against adenosine A1 receptor using [3H]CPX in guinea pig DDT membrane; 506+/-111
[21] = biological target: T1, Adenosine receptor A1; experiment: Binding affinity against adenosine A1 receptor using [3H]CPX in guinea pig DDT membrane; 614+/-78
[22] = biological target: T1, Adenosine receptor A1; experiment: Binding affinity against adenosine A1 receptor using [3H]CPX in guinea pig DDT membrane; 604+/-241
[23] = biological target: T1, Adenosine receptor A1; experiment: Binding affinity against adenosine A1 receptor using [3H]CPX in guinea pig DDT membrane; 158+/-21
[24] = biological target: T1, Adenosine receptor A1; experiment: Binding affinity against adenosine A1 receptor using [3H]CPX in guinea pig DDT membrane; 473+/-329
[25] = biological target: T1, Adenosine receptor A1; experiment: Binding affinity against adenosine A1 receptor using [3H]CPX in guinea pig DDT membrane; 7292+/-3241
[26] = biological target: T1, Adenosine receptor A1; experiment: Binding affinity against adenosine A1 receptor using [3H]CPX in guinea pig DDT membrane; 894+/-659

SMILES: Cn1ccnc1SC[C@H]1OC(n2cnc3c(NC4CCCC4)ncnc32)[C@H](O)[C@@H]1O (stereo partly specified)
Ki [1]: 1340 nM

SMILES: Cc1ccccc1OC[C@H]1OC(n2cnc3c(NC4CCOC4)ncnc32)[C@H](O)[C@@H]1O (stereo partly specified)
Ki [3]: 503 nM

SMILES: COc1ccc2nc(SC[C@H]3OC(n4cnc5c(NC6CCCC6)ncnc54)[C@H](O)[C@@H]3O)sc2c1 (stereo partly specified)
Ki [7]: 1670 nM

SMILES: O[C@@H]1[C@@H](CSc2ccccc2F)OC(n2cnc3c(NC4CCCC4)ncnc32)[C@@H]1O (stereo partly specified)
Ki [8]: 287 nM

SMILES: O[C@@H]1[C@@H](CSc2nccs2)OC(n2cnc3c(NC4CCCC4)ncnc32)[C@@H]1O (stereo partly specified)
Ki [9]: 166 nM

SMILES: O[C@@H]1[C@@H](COCc2ccccc2)OC(n2cnc3c(NC4CCOC4)ncnc32)[C@@H]1O (stereo partly specified)
Ki [1]: 165 nM

SMILES: O[C@@H]1[C@@H](COc2ccccc2F)OC(n2cnc3c(NC4CCCC4)ncnc32)[C@@H]1O (stereo partly specified)
Ki [1]: 4390 nM

SMILES: O[C@@H]1[C@@H](COc2ccc(F)cc2)OC(n2cnc3c(NC4CCOC4)ncnc32)[C@@H]1O (stereo partly specified)
Ki [13]: 343 nM

SMILES: COc1ccc2sc(SC[C@H]3OC(n4cnc5c(NC6CCCC6)ncnc54)[C@H](O)[C@@H]3O)nc2c1 (stereo partly specified)
Ki [14]: 354 nM

SMILES: O[C@@H]1[C@@H](CSc2ncccn2)OC(n2cnc3c(NC4CCOC4)ncnc32)[C@@H]1O (stereo partly specified)
Ki [15]: 913 nM

SMILES: Cn1ccnc1SC[C@H]1OC(n2cnc3c(NC4CCOC4)ncnc32)[C@H](O)[C@@H]1O (stereo partly specified)
Ki [16]: 4190 nM

SMILES: Cc1cc(COC[C@H]2OC(n3cnc4c(NC5CCOC5)ncnc43)[C@H](O)[C@@H]2O)no1 (stereo partly specified)
Ki [1]: 192 nM

SMILES: O[C@@H]1[C@@H](COc2cccc(F)c2)OC(n2cnc3c(NC4CCOC4)ncnc32)[C@@H]1O (stereo partly specified)
Ki [22]: 604 nM

Further lines, results first:

Ki [2]: 5500 nM | Ki [1]: 494 nM
SMILES: O[C@@H]1[C@H](O)[C@@H](CSc2ccc(F)cc2F)O[C@H]1n1cnc2c(NC3CCOC3)ncnc21 (stereo partly specified)

Ki [4]: 1770 nM
SMILES: O[C@@H]1[C@@H](CSc2nc3ccccc3s2)OC(n2cnc3c(NC4CCCC4)ncnc32)[C@@H]1O (stereo partly specified)

Ki [5]: 1140 nM
SMILES: Cc1ccccc1SC[C@H]1OC(n2cnc3c(NC4CCOC4)ncnc32)[C@H](O)[C@@H]1O (stereo partly specified)

Ki [1]: > 5000 nM
SMILES: Cc1csc(SC[C@H]2OC(n3cnc4c(NC5CCOC5)ncnc43)[C@H](O)[C@@H]2O)n1 (stereo partly specified)

Ki [6]: 1570 nM
SMILES: O[C@@H]1[C@@H](CSc2cccc(F)c2)OC(n2cnc3c(NC4CCOC4)ncnc32)[C@@H]1O (stereo partly specified)

Ki [10]: 400 nM
SMILES: O[C@@H]1[C@@H](CSc2nc3ccccc3s2)OC(n2cnc3c(NC4CCOC4)ncnc32)[C@@H]1O (stereo partly specified)

Ki [11]: 1940 nM
SMILES: O[C@@H]1[C@@H](CSc2nc3ccc(Cl)cc3o2)OC(n2cnc3c(NC4CCOC4)ncnc32)[C@@H]1O (stereo partly specified)

Ki [12]: 338 nM
SMILES: O[C@@H]1[C@@H](CSc2ccccc2Cl)OC(n2cnc3c(NC4CCOC4)ncnc32)[C@@H]1O (stereo partly specified)

Ki [17]: 5850 nM
SMILES: Cc1cccc(C)c1SC[C@H]1OC(n2cnc3c(NC4CCOC4)ncnc32)[C@H](O)[C@@H]1O (stereo partly specified)

Ki [18]: 6250 nM
SMILES: O[C@@H]1[C@@H](CSc2ccccc2C(F)(F)F)OC(n2cnc3c(NC4CCOC4)ncnc32)[C@@H]1O (stereo partly specified)

Ki [19]: 117 nM
SMILES: O[C@@H]1[C@@H](COc2ccccc2F)OC(n2cnc3c(NC4CCOC4)ncnc32)[C@@H]1O (stereo partly specified)

Ki [20]: 506 nM
SMILES: O[C@@H]1[C@H](O)[C@@H](CSc2ccccc2F)O[C@H]1n1cnc2c(NC3CCOC3)ncnc21 (stereo partly drawn) [N6-Tetrahydrofuranyl-9H-[5-deoxy-5-(2-fluorophenylthio)-beta-D-ribofuranosyl]adenine]

Ki [21]: 614 nM
SMILES: O[C@@H]1[C@@H](CSc2c(Cl)cccc2Cl)OC(n2cnc3c(NC4CCOC4)ncnc32)[C@@H]1O (stereo partly specified)

Ki [23]: 158 nM
SMILES: O[C@@H]1[C@@H](CSc2nccs2)OC(n2cnc3c(NC4CCOC4)ncnc32)[C@@H]1O (stereo partly specified)

Ki [24]: 473 nM
SMILES: O[C@@H]1[C@@H](COc2ccccc2Cl)OC(n2cnc3c(NC4CCOC4)ncnc32)[C@@H]1O (stereo partly specified)

Ki [25]: 7290 nM
SMILES: Cc1cccc(Cl)c1SC[C@H]1OC(n2cnc3c(NC4CCOC4)ncnc32)[C@H](O)[C@@H]1O (stereo partly specified)

Ki [26]: 894 nM
SMILES: O[C@@H]1[C@@H](CSc2ccccn2)OC(n2cnc3c(NC4CCOC4)ncnc32)[C@@H]1O (stereo partly specified)
